The record followed here is patent US20070232691A1, “Use of ladostigil for the treatment of schizophrenia” (priority 2006, published 2007).

For the assay, the system named is male Wistar rats. In words: MK-801-induced persistent latent inhibition (LI), thirst motivated conditioned emotional response procedure. Format: in vivo, rat. The text has this:
Latent inhibition (“LI”) is the process whereby pre-exposure to a stimulus retards conditioning to this stimulus when it is subsequently paired with reinforcement, and it has been used extensively to model cognitive impairments in schizophrenia. […] Briefly, amphetamine disrupts LI in rats and normal humans, and this is paralleled by disrupted LI in acute schizophrenia patients. Amphetamine-induced LI disruption is reversed by both typical and atypical APDs.
The rats used were male Wistar rats approximately five months old, weighing 350 g to 500 g.
Rats were tested in Campden Instruments rodent test chambers with a retractable bottle. When the bottle was not present, the hole was covered by a metal lid. Licks were detected by a Campden Instruments drinkometer. The preexposed to-be-conditioned stimulus was a 10 sec, 80 dB, 2.8 kHz tone produced by a Sonalert module. Shock was supplied through the floor by a Campden Instruments shock generator and shock scrambler set at 0.5 mA and 1 sec duration. Equipment programming and data recording were computer controlled.
LI was measured in a thirst motivated conditioned emotional response (“CER”) procedure by comparing the suppression of drinking to a tone previously paired with a foot shock in rats that received non-reinforced exposure to the tone prior to conditioning (preexposed) and in rats for whom the tone was novel (non-preexposed).
Prior to the beginning of each LI experiment, rats were handled for about 2 min daily for 8 days. On day 9, a 23 h water restriction schedule was initiated and continued throughout the experiment. After 5 days of deprivation (days 9-13), rats were trained to drink in the experimental chambers for the next 5 days (days 14-18), for 20 min during the 1st day and for 15 min per day during each of the next 4 days. Water in the test apparatus was given in addition to the daily ration of 1 h given in the home cages. The LI procedure was conducted on days 19-22 and consisted of the following stages:
With the bottle removed, the preexposed (“PE”) rats received 40 tone presentations with an inter-stimulus interval of 50 sec. The nonpreexposed (“NPE”) rats were confined to the chamber for an identical period of time without receiving the tone.
With the bottle removed, each rat received 5 tone-shock pairings given 5 min apart. Shock immediately followed tone termination. The first tone-shock pairing was given 5 min after the start of the session. After the last pairing, rats were left in the experimental chamber for an additional 5 min. […]
Each rat was placed in the chamber and allowed to drink from the bottle. […] The following times were recorded: Time to first lick, time to complete licks 1-50, time to complete licks 51-75 (before tone onset) and time to complete licks 76-100 (after tone onset). […]

“Also recorded” adds a separate entry of the source.

On to `C[C@]12N[C@H](Cc3ccccc31)c1ccccc12` [MK-801, dizocilpine, reference compound], for which the “LI (difference between preexposed and nonpreexposed groups in log times to complete licks 76-100)” value (MK-801 0.05 mg/kg i.p. 30 min before conditioning, vehicle pretreatment, 40 preexposures, 5 conditioning trials) was “significant difference between the preexposed and nonpreexposed groups, namely, LI; also recorded: persisted in showing LI”.

As to “R(+)-6-(N-methyl, N-ethyl-carbamoyloxy)-N′-propargyl-1-aminoindan ½ tartrate [ladostigil tartrate]”, the “LI / reversal of abnormally persistent LI in MK-801-treated rats” value (25 mg/kg ladostigil tartrate p.o. chronic + MK-801 0.05 mg/kg i.p.) is reported as “reversed abnormally persistent LI”. Also, under “37.5 mg/kg ladostigil tartrate p.o. chronic + MK-801 0.05 mg/kg i.p.”, the “LI (difference between preexposed and nonpreexposed groups in log times to complete licks 76-100)” value is “significant difference between the preexposed and nonpreexposed groups, namely, LI”. The “Effect on LI of drug on its own” value (ladostigil tartrate 25 mg/kg and 37.5 mg/kg p.o. chronic + saline (no MK-801)) is reported as “had no effect”.
